Calls of active or inactive are those of the source. The calls are words filed in the database; no cut-off is given here.
Legend:
[1] = biological target: Epidermal growth factor receptor (Homo sapiens, UniProt P00533, C797S/L858R/T790M); assay: Inhibition of EGFR L858R/T790M/C797S mutant (unknown origin) by ELISA
[2] = biological target: Epidermal growth factor receptor (Homo sapiens, UniProt P00533, L858R/T790M); assay: Inhibition of EGFR L858R/T790M mutant (unknown origin) by ELISA
[3] = biological target: Epidermal growth factor receptor (Homo sapiens, UniProt P00533); assay: Inhibition of wild type EGFR (unknown origin) by ELISA
[4] = biological target: Epidermal growth factor receptor (Homo sapiens, UniProt P00533, C797S/EX19DEL/T790M); assay: Inhibition of EGFR 19D/T790M/C797S mutant (unknown origin) by ELISA
[5] = test system: A-431; assay: Antiproliferative activity against human A431 cells overexpressing EGFR assessed as reduction in cell viability by CCK8 assay; type: functional, cell-based
[6] = test system: BaF3; assay: Cell cycle arrest in mouse BAF3 cells harboring EGFR 19D/T790M/C797S mutant assessed as accumulation at G2 phase at 1 uM measured after 24 hrs by flow cytometry analysis (reference value: 7.94 %); type: functional
[7] = test system: BaF3; assay: Cell cycle arrest in mouse BAF3 cells harboring EGFR 19D/T790M/C797S mutant assessed as accumulation at G1 phase at 1 uM measured after 24 hrs by flow cytometry analysis (reference value: 39.62 %); type: functional
[8] = test system: BaF3; assay: Cell cycle arrest in mouse BAF3 cells harboring EGFR 19D/T790M/C797S mutant assessed as accumulation at S phase at 1 uM measured after 24 hrs by flow cytometry analysis (reference value: 52.43 %); type: functional
[9] = test system: BaF3; assay: Antiproliferative activity against mouse BAF3 cells harboring EGFR 19D/T790M/C797S mutant assessed as reduction in cell viability by CCK8 assay; type: functional, cell-based
[10] = test system: NCI-H1975; assay: Antiproliferative activity against human NCI-H1975 cells harboring EGFR L858R/T790M mutant assessed as reduction in cell viability by CCK8 assay; type: functional, cell-based
[11] = test system: Epidermal growth factor receptor (Homo sapiens), P00533 [UNDEFINED MUTATION]; assay: Inhibition of EGFR 19D/T790M/C797S mutant (unknown origin) expressed in mouse BAF3 cells assessed as reduction in EGF-stimulated ERK phosphorylation pretreated for 3 hrs followed by EGF stimulation by Western blot analysis; type: cell-based
[12] = test system: BaF3; assay: Induction of apoptosis in mouse BAF3 cells harboring EGFR 19D/T790M/C797S mutant assessed as late apoptotic cells at 1 uM measured after 24 hrs by annexinV-FITC/propidium iodide staining based flow cytometry analysis (reference value: 2.03 %); type: functional
[13] = test system: BaF3; assay: Induction of apoptosis in mouse BAF3 cells harboring EGFR 19D/T790M/C797S mutant assessed as necrotic cells at 1 uM measured after 24 hrs by annexinV-FITC/propidium iodide staining based flow cytometry analysis (reference value: 0.13 %); type: functional
[14] = test system: BaF3; assay: Induction of apoptosis in mouse BAF3 cells harboring EGFR 19D/T790M/C797S mutant assessed as live cells at 50 uM measured after 24 hrs by annexinV-FITC/propidium iodide staining based flow cytometry analysis (reference value: 82.74 %); type: functional
[15] = test system: BaF3; assay: Cell cycle arrest in mouse BAF3 cells harboring EGFR 19D/T790M/C797S mutant assessed as accumulation at S phase at 10 uM measured after 24 hrs by flow cytometry analysis (reference value: 52.43 %); type: functional
[16] = test system: BaF3; assay: Induction of apoptosis in mouse BAF3 cells harboring EGFR 19D/T790M/C797S mutant assessed as early apoptotic cells at 10 uM measured after 24 hrs by annexinV-FITC/propidium iodide staining based flow cytometry analysis (reference value: 15.09 %); type: functional
[17] = test system: BaF3; assay: Cell cycle arrest in mouse BAF3 cells harboring EGFR 19D/T790M/C797S mutant assessed as accumulation at G1 phase at 20 uM measured after 24 hrs by flow cytometry analysis (reference value: 39.62 %); type: functional
[18] = test system: BaF3; assay: Induction of apoptosis in mouse BAF3 cells harboring EGFR 19D/T790M/C797S mutant assessed as late apoptotic cells at 50 uM measured after 24 hrs by annexinV-FITC/propidium iodide staining based flow cytometry analysis (reference value: 2.03 %); type: functional
[19] = test system: BaF3; assay: Induction of apoptosis in mouse BAF3 cells harboring EGFR 19D/T790M/C797S mutant measured after 24 hrs by annexinV-FITC/propidium iodide staining based flow cytometry analysis; type: functional, cell-based
[20] = Selectivity index, ratio of IC50 for human A431 cells overexpressing EGFR assessed as reduction in cell viability by CCK8 assay to IC50 for mouse BAF3 cells harboring EGFR 19D/T790M/C797S assessed as reduction in cell viability by CCK8 assay; type: functional
[21] = test system: BaF3; assay: Cell cycle arrest in mouse BAF3 cells harboring EGFR 19D/T790M/C797S mutant assessed as accumulation at G1 phase measured after 24 hrs by flow cytometry analysis; type: functional, cell-based
[22] = test system: BaF3; assay: Cell cycle arrest in mouse BAF3 cells harboring EGFR 19D/T790M/C797S mutant assessed as accumulation at G2 phase at 10 uM measured after 24 hrs by flow cytometry analysis (reference value: 7.94 %); type: functional
[23] = test system: Epidermal growth factor receptor (Homo sapiens), P00533 [UNDEFINED MUTATION]; assay: Inhibition of EGFR 19D/T790M/C797S mutant (unknown origin) expressed in mouse BAF3 cells assessed as reduction in EGF-stimulated Akt phosphorylation at 5 to 100 uM pretreated for 3 hrs followed by EGF stimulation by Western blot analysis; type: cell-based
[24] = test system: BaF3; assay: Cell cycle arrest in mouse BAF3 cells harboring EGFR 19D/T790M/C797S mutant assessed as accumulation at G2 phase at 20 uM measured after 24 hrs by flow cytometry analysis (reference value: 7.94 %); type: functional
[25] = test system: BaF3; assay: Induction of apoptosis in mouse BAF3 cells harboring EGFR 19D/T790M/C797S mutant assessed as late apoptotic cells at 10 uM measured after 24 hrs by annexinV-FITC/propidium iodide staining based flow cytometry analysis (reference value: 2.03 %); type: functional
[26] = Selectivity index, ratio of IC50 for human A431 cells overexpressing EGFR assessed as reduction in cell viability by CCK8 assay to IC50 for human NCI-H1975 cells harboring EGFR […]/T790M assessed as reduction in cell viability by CCK8 assay; type: functional
[27] = test system: BaF3; assay: Induction of apoptosis in mouse BAF3 cells harboring EGFR 19D/T790M/C797S mutant assessed as live cells at 1 uM measured after 24 hrs by annexinV-FITC/propidium iodide staining based flow cytometry analysis (reference value: 82.74 %); type: functional
[28] = test system: Epidermal growth factor receptor (Homo sapiens), P00533 [UNDEFINED MUTATION]; assay: Inhibition of EGFR 19D/T790M/C797S mutant (unknown origin) expressed in mouse BAF3 cells assessed as reduction in EGF-stimulated EGFR phosphorylation pretreated for 3 hrs followed by EGF stimulation by Western blot analysis; type: cell-based
[29] = test system: BaF3; assay: Cell cycle arrest in mouse BAF3 cells harboring EGFR 19D/T790M/C797S mutant assessed as accumulation at G1 phase at 10 uM measured after 24 hrs by flow cytometry analysis (reference value: 39.62 %); type: functional
[30] = test system: BaF3; assay: Induction of apoptosis in mouse BAF3 cells harboring EGFR 19D/T790M/C797S mutant assessed as early apoptotic cells at 1 uM measured after 24 hrs by annexinV-FITC/propidium iodide staining based flow cytometry analysis (reference value: 15.09 %); type: functional
[31] = test system: BaF3; assay: Cell cycle arrest in mouse BAF3 cells harboring EGFR 19D/T790M/C797S mutant assessed as accumulation at S phase at 20 uM measured after 24 hrs by flow cytometry analysis (reference value: 52.43 %); type: functional
[32] = test system: BaF3; assay: Induction of apoptosis in mouse BAF3 cells harboring EGFR 19D/T790M/C797S mutant assessed as live cells at 10 uM measured after 24 hrs by annexinV-FITC/propidium iodide staining based flow cytometry analysis (reference value: 82.74 %); type: functional
[33] = test system: BaF3; assay: Induction of apoptosis in mouse BAF3 cells harboring EGFR 19D/T790M/C797S mutant assessed as necrotic cells at 50 uM measured after 24 hrs by annexinV-FITC/propidium iodide staining based flow cytometry analysis (reference value: 0.13 %); type: functional
[34] = test system: BaF3; assay: Induction of apoptosis in mouse BAF3 cells harboring EGFR 19D/T790M/C797S mutant assessed as necrotic cells at 10 uM measured after 24 hrs by annexinV-FITC/propidium iodide staining based flow cytometry analysis (reference value: 0.13 %); type: functional
[35] = test system: BaF3; assay: Induction of apoptosis in mouse BAF3 cells harboring EGFR 19D/T790M/C797S mutant assessed as early apoptotic cells at 50 uM measured after 24 hrs by annexinV-FITC/propidium iodide staining based flow cytometry analysis (reference value: 15.09 %); type: functional

Sequence of Epidermal growth factor receptor (Homo sapiens, UniProt P00533, C797S/L858R/T790M) (P00533 25-1210 T790M/C797S/L858R limits assumed): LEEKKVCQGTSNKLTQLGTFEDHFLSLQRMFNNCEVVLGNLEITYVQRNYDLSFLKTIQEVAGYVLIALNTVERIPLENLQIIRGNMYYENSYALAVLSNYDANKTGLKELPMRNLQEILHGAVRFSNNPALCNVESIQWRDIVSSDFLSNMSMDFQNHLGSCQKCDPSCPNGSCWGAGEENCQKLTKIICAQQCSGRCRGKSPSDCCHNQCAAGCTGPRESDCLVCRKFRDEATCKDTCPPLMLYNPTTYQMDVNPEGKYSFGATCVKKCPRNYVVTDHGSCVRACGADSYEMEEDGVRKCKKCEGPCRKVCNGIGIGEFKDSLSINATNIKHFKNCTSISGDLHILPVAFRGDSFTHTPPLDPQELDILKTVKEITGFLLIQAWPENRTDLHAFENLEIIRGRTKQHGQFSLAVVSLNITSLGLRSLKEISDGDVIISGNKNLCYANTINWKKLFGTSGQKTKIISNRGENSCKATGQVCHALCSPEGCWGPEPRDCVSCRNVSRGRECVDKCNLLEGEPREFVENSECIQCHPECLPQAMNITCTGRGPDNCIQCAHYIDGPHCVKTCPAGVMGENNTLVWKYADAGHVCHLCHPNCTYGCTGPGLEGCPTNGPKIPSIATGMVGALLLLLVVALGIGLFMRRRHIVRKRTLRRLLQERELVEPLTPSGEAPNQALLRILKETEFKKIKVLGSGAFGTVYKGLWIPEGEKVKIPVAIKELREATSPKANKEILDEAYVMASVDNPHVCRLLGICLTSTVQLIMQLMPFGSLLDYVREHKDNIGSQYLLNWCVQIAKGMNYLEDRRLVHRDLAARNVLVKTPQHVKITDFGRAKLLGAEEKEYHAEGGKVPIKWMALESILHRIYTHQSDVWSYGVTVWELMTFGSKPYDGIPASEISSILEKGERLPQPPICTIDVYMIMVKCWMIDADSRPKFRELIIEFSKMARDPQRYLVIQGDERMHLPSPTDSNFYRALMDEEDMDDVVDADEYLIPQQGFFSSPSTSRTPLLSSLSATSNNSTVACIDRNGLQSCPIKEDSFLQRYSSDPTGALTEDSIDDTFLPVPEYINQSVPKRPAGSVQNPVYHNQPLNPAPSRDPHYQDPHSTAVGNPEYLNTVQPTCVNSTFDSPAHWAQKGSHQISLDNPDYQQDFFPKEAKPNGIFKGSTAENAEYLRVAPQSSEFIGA
Sequence of Epidermal growth factor receptor (Homo sapiens), P00533 [UNDEFINED MUTATION] (P00533 whole entry, looked up, stated change not applied): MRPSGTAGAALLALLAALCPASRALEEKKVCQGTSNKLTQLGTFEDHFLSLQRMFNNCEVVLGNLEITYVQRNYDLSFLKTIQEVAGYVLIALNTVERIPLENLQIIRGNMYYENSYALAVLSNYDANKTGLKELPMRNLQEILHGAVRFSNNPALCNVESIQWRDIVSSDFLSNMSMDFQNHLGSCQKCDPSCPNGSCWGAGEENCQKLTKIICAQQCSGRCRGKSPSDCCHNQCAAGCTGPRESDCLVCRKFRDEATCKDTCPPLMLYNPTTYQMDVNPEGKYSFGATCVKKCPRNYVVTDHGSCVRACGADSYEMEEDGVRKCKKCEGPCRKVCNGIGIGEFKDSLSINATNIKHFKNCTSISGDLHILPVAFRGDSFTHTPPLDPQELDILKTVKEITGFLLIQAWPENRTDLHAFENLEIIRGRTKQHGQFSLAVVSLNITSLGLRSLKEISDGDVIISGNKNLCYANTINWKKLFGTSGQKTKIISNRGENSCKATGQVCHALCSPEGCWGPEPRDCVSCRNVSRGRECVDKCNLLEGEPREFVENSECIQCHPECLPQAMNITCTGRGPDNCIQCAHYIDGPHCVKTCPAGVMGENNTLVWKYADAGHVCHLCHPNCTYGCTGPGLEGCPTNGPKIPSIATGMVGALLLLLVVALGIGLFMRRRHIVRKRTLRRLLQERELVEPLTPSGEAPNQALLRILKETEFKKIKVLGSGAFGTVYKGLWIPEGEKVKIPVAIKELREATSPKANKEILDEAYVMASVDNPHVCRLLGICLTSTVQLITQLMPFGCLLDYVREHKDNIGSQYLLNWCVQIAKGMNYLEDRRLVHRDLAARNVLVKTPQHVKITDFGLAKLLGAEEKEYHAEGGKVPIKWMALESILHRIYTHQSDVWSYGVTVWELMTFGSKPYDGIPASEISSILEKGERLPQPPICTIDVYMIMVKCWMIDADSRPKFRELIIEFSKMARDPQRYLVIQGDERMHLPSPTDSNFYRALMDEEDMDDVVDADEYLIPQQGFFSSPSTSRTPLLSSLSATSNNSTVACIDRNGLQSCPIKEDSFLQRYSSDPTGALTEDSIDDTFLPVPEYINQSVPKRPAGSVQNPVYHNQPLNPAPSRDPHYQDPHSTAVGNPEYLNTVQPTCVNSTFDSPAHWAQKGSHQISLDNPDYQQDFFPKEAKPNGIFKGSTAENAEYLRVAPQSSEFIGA
Sequence of Epidermal growth factor receptor (Homo sapiens, UniProt P00533, C797S/EX19DEL/T790M) (P00533 whole entry, looked up, stated change not applied): as above
Sequence of Epidermal growth factor receptor (Homo sapiens, UniProt P00533) (P00533 whole entry): as the sequence (P00533 whole entry, looked up, stated change not applied) above

Structure (SMILES): CCC(=O)Nc1cc(Nc2nccc(-c3cn(CCCO)c4ccccc34)n2)c(OC)cc1N(C)CCN(C)C
- IC50 [1]: 638 nM
- IC50 [2]: 169 nM
- IC50 [3]: > 1000 nM
- IC50 [4]: 73 nM

Structure (SMILES): C=CC(=O)Nc1cc(Nc2nccc(-c3cn(C)c4ccccc34)n2)c(OC)cc1N(C)CCN(C)C [OSIMERTINIB]
- Activity [6]: 8.93%
- Activity [7]: 45.49%
- Activity [8]: 45.58%
- IC50 [9]: 5.47 µM

Structure (SMILES): CCC(=O)Nc1cc(Nc2nccc(-c3cn(CCCO)c4ccc(F)cc34)n2)c(OC)cc1F
- IC50 [1]: 332 nM
- IC50 [2]: 142 nM
- IC50 [3]: > 1000 nM
- IC50 [4]: 40.4 nM

Structure (SMILES): CCC(=O)Nc1cc(Nc2nccc(-c3cn(CCCO)c4ccccc34)n2)c(OC)cc1F
- IC50 [1]: 422 nM
- IC50 [2]: 127 nM
- IC50 [3]: > 1000 nM
- IC50 [4]: 72.5 nM

Structure (SMILES): CCC(=O)Nc1cc(Nc2nccc(-c3c[nH]c4c(CCO)cccc34)n2)c(OC)cc1F
- IC50 [1]: > 1000 nM
- IC50 [2]: 208 nM
- IC50 [3]: > 1000 nM
- IC50 [4]: 663 nM

Structure (SMILES): C=CC(=O)Nc1cc(Nc2nccc(-c3cn(CCCO)c4ccccc34)n2)c(OC)cc1F
- IC50 [1]: > 1000 nM
- IC50 [2]: 2.2 nM
- IC50 [3]: 283 nM
- IC50 [4]: 17.9 nM

Structure (SMILES): COc1cc(N(C)CCN(C)C)ccc1Nc1nccc(-c2cn(CCCO)c3ccccc23)n1
- inhibition [11]: Dose-dependent effect
- Activity [12]: 2.74%
- Activity [13]: 0.19%
- Activity [14]: 1.76%
- IC50 [1]: 218 nM
- Activity [15]: 37.81%
- Activity [16]: 24.18%
- Activity [17]: 53.37%
- IC50 [5]: 20.5 µM
- Activity [18]: 23.81%
- Activity [19]: Dose-dependent effect
- Ratio IC50 [20]: 2.41
- Activity [21]: Dose-dependent effect
- Activity [22]: 10.25%
- inhibition [23]: Active
- Activity [24]: 10.02%
- Activity [6]: 10.52%
- Activity [7]: 48%
- Activity [25]: 14.53%
- Ratio IC50 [26]: 1.27
- IC50 [2]: 157 nM
- Activity [27]: 80.07%
- IC50 [3]: > 1000 nM
- IC50 [4]: 15.3 nM
- inhibition [28]: Dose-dependent effect
- Activity [29]: 51.94%
- Activity [30]: 17%
- Activity [8]: 40.51%
- Activity [31]: 26.61%
- Activity [32]: 60.89%
- Activity [33]: 0.42%
- IC50 [9]: 8.51 µM
- IC50 [10]: 16.2 µM
- Activity [34]: 0.4%
- Activity [35]: 74.01%

Structure (SMILES): CCC(=O)Nc1cc(Nc2nccc(-c3cn(CCO)c4ccccc34)n2)c(OC)cc1F
- IC50 [1]: > 1000 nM
- IC50 [2]: 170 nM
- IC50 [3]: > 1000 nM
- IC50 [4]: 80.5 nM
